# Data as given in patent US10899932B2, “Non-amphoteric, quaternisable and water-soluble polymers for modifying the surface charge of solid particles” (priority 2014, dated 2021).
# Assay: Zeta potential measurement of aqueous suspensions of powders (Coulter DELSA 440 SX)
# Assay type: physicochemical
# Settings: aqueous suspension, pH 4
# Source text: The zeta potential can be determined directly from the direction and velocity of migration of the dispersed particles in an electrical field, on the basis of the following relation:
# [formula] • ζ=zeta potential (in mV) • ε=dielectric constant of the dispersion medium • v=electrophoretic migration velocity (in cm/s) • η=viscosity of the dispersion medium (poise, 1 poise=0.1 Pa·s) • E=field strength (in […]) • f=numerical factor (friction factor), dependent on the shape of the particles, their conductivity, and the size of the particles in comparison to the thickness of the diffuse double layer
# The migration velocity here is measured, depending on the size of the particles under investigation, either by means of observation through a light microscope or, particularly in the case of relatively small particles, by means of laser correlation spectroscopy.
# The zeta potential of the aqueous suspensions of boron nitride, silicon carbide, diamond, deltamethrin and azoxystrobin powders, all produced in analogy to the example above, was determined as follows. The measurement took place with a Coulter DELSA 440 SX instrument. […] This reversal of the original surface charge was verified for the inventive particles by the experimental measurements below.
row,SMILES,Zeta potential [mV]
1,"CO/C=C(/C(=O)OC)c1ccccc1Oc1cc(Oc2ccccc2C#N)ncn1 [CE8, Azoxystrobin]",−36
2,"CC1(C)[C@H](C(=O)O[C@H](C#N)c2cccc(Oc3ccccc3)c2)[C@@H]1C=C(Br)Br [CE7, Deltamethrin]",−32
